According to patent US20180045715A1, “STRUCTURE AND FUNCTION OF THE SALICYCLIC ACID BINDING SITES ON HUMAN HMGB1 AND METHODS OF USE THEREOF FOR THE RATIONAL DESIGN OF BOTH SALICYCLIC ACID DERIVATIVES AND OTHER AGENTS THAT ALTER ANIMAL AND PLANT HMGBS ACTIVITIES” (Boyce Thompson Institute for Plant Research, Inc., priority 2015, published 2018):
Changes are numbered by the printed parent chain.

How the values were obtained:
HMGB1-CXCL12 Complex = molecular target: T1, HMGB1-CXCL12 Complex (Homo sapiens, UniProt P09429, DEL90-93); experiment: WaterLOGSY NMR with HMGB1/CXCL12 complex; assay type: binding; conditions: 6 mM SA or 5 mM ac3AESA, 20 μM complex
T1 construct: (i) full length: residues 2-215; full-length disulfide-intact CXCL12; hexaHis (TEV-cleavable) (N, cleaved yes)
T1 sequence (P09429 2-215 limits assumed): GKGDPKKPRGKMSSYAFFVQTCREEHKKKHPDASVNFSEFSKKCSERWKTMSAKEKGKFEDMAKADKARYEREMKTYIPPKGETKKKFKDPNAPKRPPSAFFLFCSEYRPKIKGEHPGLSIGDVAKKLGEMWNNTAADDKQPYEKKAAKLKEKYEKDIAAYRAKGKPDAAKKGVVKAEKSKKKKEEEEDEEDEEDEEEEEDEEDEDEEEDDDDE
Excerpt: (§1) NMR can be used to detect protein ligand interactions either by protein-detected experiments (Lepre, Moore et al. 2004), detecting changes in the frequencies of resonances of the protein sample due to ligand binding (protein-detected chemical shift perturbation (CSP) experiments), or by ligand-detected experiments (Lepre, Moore et al. 2004), in which NMR properties of the ligands due to ligand-protein interactions are detected. Protein-detected ligand binding experiments are usually done using isotope-enriched protein samples which can be studied by isotope-filtered NMR experiments, including for example ^15N-^1H-HSQC (Kay, Keifer et al. 1992). Ligand-detected experiments include the Waterlogsy experiment (Meyer and Peters 2003, Lepre, Moore et al. 2004, Furihata, Shimotakahara et al. 2008), which detects interactions in the ternary complex formed by the protein, the ligand, and one or more water molecules, and the Saturation Transfer Difference (STD) NMR experiments (Mayer and Meyer 2001, Lepre, Moore et al. 2004, Wang, Liu et al. 2004), which detects magnetization transfer from the protein to the ligand in the protein-ligand complex. The Waterlogsy experiment is a more sensitive experiment, typically employed to detect qualitatively if there is an interaction between protein and ligand. […]

K12A/K68A HMGB1^RE = molecular target: T2, K12A/K68A HMGB1^RE (Homo sapiens, UniProt P09429, K12A/K68A); experiment: Chemotaxis assay with mutant K12A/K68A HMGB1^RE; assay type: cell-based; conditions: 1 nM mutant HMGB1^RE, 30 μM SA
T2 construct: (i) full length: residues 2-215; made in house
T2 sequence (P09429 2-215 K12A/K68A): T1 sequence (P09429 2-215 limits assumed) with K11A, K67A
Method: (§2) Cell migration was assayed using Boyden chambers (Venereau et al., 2012). The downside of PVP-free polycarbonate filters (8 μm pores; Millipore) was coated with 50 μg/ml fibronectin (Sigma). Serum-free DMEM (negative control), DMEM containing 0.1 nM fMLP (positive control; Sigma), or DMEM containing 1 nM HMGB1^RE or HMGB1^SS were placed in the lower chamber, together with different concentrations of SA (Sigma). The mouse 3T3 fibroblast cells were cultured in DMEM media supplemented with 10% CS until 90% confluence, washed twice with PBS to eliminate any floating cells, and harvested with trypsin. 50,000 cells in 200 μL were added to the upper chamber, and cells were left to migrate for 3 h at 37° C. Non-migrating cells were removed with a cotton swab, and migrated cells were fixed with ethanol and stained with Giemsa.
Two additional double mutants in Box A were constructed—H27A/R48A and K12A/K68A. […] Since mutant H27A/R48A no longer had chemo-attractant activity, the effect of SA on this activity could not be assessed (FIG. 12).

CXCL12 = molecular target: T3, CXCL12 (Homo sapiens, UniProt P48061); experiment: WaterLOGSY NMR with CXCL12; assay type: binding; conditions: 6 mM SA or 5 mM ac3AESA, 20 μM protein
T3 construct: full-length disulfide-intact CXCL12
T3 sequence (P48061 22-89 limits assumed, species assumed): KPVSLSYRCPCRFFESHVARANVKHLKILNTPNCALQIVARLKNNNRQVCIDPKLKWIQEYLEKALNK
Excerpt: as §1

AtHMGB3 = molecular target: T4, AtHMGB3 (Arabidopsis thaliana, UniProt P93047); experiment: Callose staining: AtHMGB3-induced callose deposition in Arabidopsis leaves; assay type: in vivo; parameters: providing a full length Arabidopsis thaliana HMGB1 or HMGB3 (AtHMGB1 or AtHMGB3) protein; 6x His; made in house; host or cells: Escherichia coli BL21; conditions: 100 nM AtHMGB3, 15 h
T4 sequence (P93047 1-141): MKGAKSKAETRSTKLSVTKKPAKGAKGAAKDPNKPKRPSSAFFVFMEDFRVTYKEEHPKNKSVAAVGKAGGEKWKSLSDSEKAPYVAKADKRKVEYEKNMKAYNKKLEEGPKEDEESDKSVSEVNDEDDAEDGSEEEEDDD
Method: Arabidopsis leaves were collected 15 h after infiltration with 100 nM AtHMGB3 or 100 nM Pep1, and then immediately immersed in alcoholic lactophenol (phenol:glycerol:lactic acid:water:ethanol=1:1:1:1:8) to destain the chlorophyll. To remove the background fluorescence, destained leaves were treated with toluidine blue O solution (0.05% toluidine blue O, 0.1 M sodium acetate, pH 4.4) for 30 min, and then rinsed twice with 150 mM K2HPO4 (pH 9.5). Callose was stained with aniline blue solution (0.02% aniline blue, 150 mM K2HPO4, pH 9.5) for 30 min in the absence of light. The aniline blue-stained leaves were mounted with 25% glycerol and analyzed using a Leica DM5500 epifluorescence microscope. The number of callose loci was quantified using an ImageJ (NIH).

HMGB1 = molecular target: T5, HMGB1 (Homo sapiens, UniProt P09429); experiment: Photoaffinity labeling of HMGB1 with 4AzSA, competition by SA; assay type: binding; conditions: 0.1 mM 4AzSA, increasing concentrations of SA
T5 construct: (i) full length: residues 2-215; 6x His (cleaved yes); made in house; host or cells: Escherichia coli BL21
T5 sequence (P09429 2-215): T1 sequence (P09429 2-215 limits assumed)
Method: HMGB1's SA-binding activity was then assessed using photoaffinity-crosslinking. Recombinant HMGB1 was pre-incubated with or without photoreactive 4-azido SA (4AzSA) before exposure to UV irradiation (FIG. 1B).

[1] = system: fMLP-induced migration of NIH/3T3 fibroblast cells; experiment: Chemotaxis assay: fMLP-induced fibroblast migration (specificity control); assay type: cell-based, mouse; conditions: 0.1 nM fMLP
Method: as §2
HMGB1^RE acts as a chemo-attractant that mediates migration of several cell types, including monocytes, fibroblasts, mesoangioblasts, smooth muscle cells, and colon cancer cells (Venereau et al., 2012). To determine whether SA alters HMGB 1's chemo-attractant activity, a chemotaxis assay was performed with mouse 3T3 fibroblasts.

[2] = after intake of 500 mg of aspirin; cited from earlier work

In the case of `O=C(O)c1ccccc1O` [SA, salicylic acid], the “WaterLOGSY binding to complex formed between CXCL12 and HMGB1” value (HMGB1-CXCL12 Complex) is reported as “binds”, the “inhibition by SA of K12A/K68A HMGB1^RE chemo-attractant activity” value (K12A/K68A HMGB1^RE) is reported as “retained” and the “WaterLOGSY binding to CXCL12” value (CXCL12) is reported as “binds”. The “effect on AtHMGB3-induced callose deposition” value (AtHMGB3) was “completely suppressed”, the “inhibition of crosslinking of 4AzSA to HMGB1” value (HMGB1) was “effectively inhibited crosslinking” and the “effect on fibroblast migration induced by fMLP” value [1] was “did not affect”. For the same molecule, the “time to reach the stated SA plasma concentration” value [2] was ≤ 1 h.
